Earlier results in patent US9023395B2, “Formulation of active agent loaded activated PLGA nanoparticles for targeted cancer nano-therapeutics” (University of North Texas Health Science Center at Fort …, priority 2007, dated 2015).

Conditions: for Solubility: solvent in which the linker is soluble

water solubility | Solubility | SMILES
water insoluble | DMSO | O=C(CCN1C(=O)C=CC1=O)ON1C(=O)CCC1=O [BMPS, N-[b-maleimidopropyl-oxy] succinimide ester]
water insoluble | DMSO | O=C(CCCC(=O)ON1C(=O)CCC1=O)ON1C(=O)CCC1=O [DSG, Disuccinimidyl glutarate]
– | DMSO | CCCCCCCCCCCCCCCC(=O)ON1C(=O)CCC1=O [PAS, Palmitic acid N- hydroxysuccin- imide ester]
